From patent US7309701B2, “Pyridazinone derivatives as pharmaceuticals and pharmaceutical compositions containing them” (Sanofi-Aventis Deutschland GmbH, priority 2002, dated 2007) come the findings set out here.

The subject of series [1] is Tau protein. Nature of the series: Tau-phosphorylation: inhibition of phosphorylation of the Tau protein in adult rat cortex sections. The class given is cell-based. The conditions noted are these: inhibition of Tau phosphorylation (Ser396/404, antibody AD2), 2 h incubation at 37° C. The method, then:
The compounds' activities were determined by measuring the inhibition of phosphorylation of the Tau protein in adult rat cortex sections. The cortex sections having a thickness of 300 μm were prepared from 8-10-week old male OFA rats (Iffa-Credo), sacrificed by decapitation. They were incubated in 5 ml of DMEM medium containing pyruvate and glucose 4.5 g/l at 37° C. for 40 min. The sections were then washed twice with the medium, distributed into microtubes (50 μl in 500 μl of medium with or without test compounds), and incubated at 37° C., with stirring. Two hours later, the experiment was stopped by centrifugation. The sections were washed, sonicated and centrifuged at 18300 g, for 15 min at 4° C. The concentration of proteins in supernatant was determined by a commercial assay (BCA Protein Assay, Pierce) based on the Lowry method. The samples, denatured beforehand for 10 min at 70° C., were separated on a 4-12% Bis-Tris vertical gel in the presence of MOPS-SDS buffer and electrotransferred onto nitrocellulose membrane. Immunolabeling was performed with their monoclonal antibody AD2 which specifically recognizes the phosphorylated epitopes Ser396/404 of the Tau protein. The immunoactive proteins were visualized by adding a second antibody directed against the mouse IgG's and coupled to peroxidase and a chemiluminescent substrate. The autoradiograms obtained were finally quantified using the ‘GeneTools’ software from Syngene (GeneGnome, Ozyme) in order to determine an IC50.

For series [2], the target named is human recombinant GSK-3β (Homo sapiens, UniProt P49841). Nature of the series: GSK-3β activity, AlphaScreen with primed glycogen synthase substrate peptide. The conditions noted are these: human recombinant GSK-3β, 10 μM ATP, 60 min at room temperature, AlphaScreen; read-out: IC50. The class given is biochemical. The method, then: GSK-β activity was measured using human recombinant GSK-3β and a primed (pre-phosphorylated) substrate peptide (derived from glycogen synthase and containing the phosphorylation sites 3a, b, and c) on basis of the AlphaScreen technology in 384-well plate format (small volume plate, white, GREINER).
(In general: Alpha assays give light when donor and acceptor beads are brought close together.)

human recombinant GSK-3β, sequence (P49841 whole entry): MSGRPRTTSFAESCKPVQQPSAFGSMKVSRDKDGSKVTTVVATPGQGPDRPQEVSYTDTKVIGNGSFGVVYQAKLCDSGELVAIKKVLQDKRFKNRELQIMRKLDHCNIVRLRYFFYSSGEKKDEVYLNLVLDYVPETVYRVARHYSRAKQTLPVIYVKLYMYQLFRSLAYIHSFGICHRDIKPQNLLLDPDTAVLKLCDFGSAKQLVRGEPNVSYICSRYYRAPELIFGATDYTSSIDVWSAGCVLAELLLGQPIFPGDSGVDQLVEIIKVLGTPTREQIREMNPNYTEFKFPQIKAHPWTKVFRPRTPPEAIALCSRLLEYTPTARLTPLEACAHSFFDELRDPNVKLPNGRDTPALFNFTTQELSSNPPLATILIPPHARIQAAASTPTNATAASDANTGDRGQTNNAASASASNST

As for `O=C(NCc1ccc(Cl)cc1Cl)c1cc(-c2ccncc2)n[nH]c1=O` [Example 2, N-(2,4-dichlorobenzyl)-3-oxo-6-pyridin-4-yl-2,3-dihydropyridazine-4-carboxamide], the melting point – broadly, the temperature of the solid-liquid transition – is 233 °C. Also, in series [1], 22 µM corresponded to half-maximal inhibition (IC50). In series [2], the IC50 – broadly, the concentration that inhibits the measured activity by half – came to 0.72 µM.
For `O=C(NCc1ccc(Cl)cc1)c1cc(-c2ccncc2)n[nH]c1=O` [Example 4, N-(4-chlorobenzyl)-3-oxo-6-pyridin-4-yl-2,3-dihydropyridazine-4-carboxamide], in that order: 250 °C, 13 µM and 0.18 µM.
Compound `O=C(NCc1ccncc1)c1cc(-c2ccncc2)n[nH]c1=O` [Example 8, 3-oxo-6-pyridin-4-yl-N-(pyridin-4-ylmethyl)-2,3-dihydropyridazine-4-carboxamide] displayed a melting point of 254 °C. The IC50 in series [1] was 9 µM.
As to `O=C(NCc1ccc(C(F)(F)F)cc1)c1cc(-c2ccncc2)n[nH]c1=O` [Example 10, 3-oxo-6-pyridin-4-yl-N-[4-(trifluoromethyl)benzyl]-2,3-dihydropyridazine-4-carboxamide], the melting point came to 227 °C. In series [1], this compound had an IC50 of 9.5 µM.
`O=C(NCc1ccc(Cl)c(Cl)c1)c1cc(-c2ccncc2)n[nH]c1=O` [Example 16, N-(3,4-dichlorobenzyl)-3-oxo-6-pyridin-4-yl-2,3-dihydropyridazine-4-carboxamide] gave a melting point of 265 °C. For the same compound, in series [1], 3.5 µM corresponded to half-maximal inhibition (IC50).
In turn, `O=C(NCc1ccccc1)c1cc(-c2ccc(O)cc2)n[nH]c1=O` [Example 19, N-benzyl-3-oxo-6-[4-(hydroxy)phenyl]-2,3-dihydropyridazine-4-carboxamide] registered an IC50 in series [1] of 4.1 µM.
Consider `O=C(NCc1ccc(Cl)cc1Cl)c1cc(-c2ccc(O)cc2)n[nH]c1=O` [Example 22, N-(2,4-Dichlorbenzyl)-3-oxo-6-[4-(hydroxy)phenyl]-2,3-dihydropyridazine-4-carboxylic acid], for which half-maximal inhibition in series [1] (IC50) required 22 µM.
`CNc1nccc(-c2cc(C(=O)NCc3ccc(Cl)cc3)c(=O)[nH]n2)n1` [Example 34, 6-(2-Methylamino-pyrimidin-4-yl)-3-oxo-2,3-dihydro-pyridazine-4-carboxylic acid 4-chloro-benzylamide] showed a 50% inhibitory concentration (IC50) in series [1] of 0.24 µM.
Turning to `O=C(NCc1ccc(Cl)cc1)c1cc(-c2ccc(O)cc2)n[nH]c1=O` [Example 40, 6-(4-Hydroxy-phenyl)-3-oxo-2,3-dihydro-pyridazine-4-carboxylic acid 4-chloro-benzylamide], the IC50 in series [1] came to 0.3 µM; in series [2], 2.8 µM.
Compound `O=C(NCc1ccc(Cl)cc1)c1cc(Cl)n[nH]c1=O` [Example 43, 6-Chloro-3-oxo-2,3-dihydro-pyridazine-4-carboxylic acid 4-chloro-benzylamide] showed an IC50 in series [1] of 2.2 µM.
For `Cc1cc(-c2cc(C(=O)NCc3ccc(Cl)cc3)c(=O)[nH]n2)cc(C)c1O` [Example 52, 6-(4-Hydroxy-3,5-dimethyl-phenyl)-3-oxo-2,3-dihydro-pyridazine-4-carboxylic acid 4-chloro-benzylamide], the IC50 is 19 µM in series [1] and > 10 µM in series [2].
As to `O=C(NCc1ccc(Cl)cc1)c1cc(-c2cccc(O)c2)n[nH]c1=O` [Example 53], the figures for the concentration for half-maximal inhibition (IC50) in series [1] and in series [2] were 19 µM and 4.4 µM, respectively.
For the compound `O=C(NCCCc1ccccc1)c1cc(-c2ccncc2)n[nH]c1=O` [Example 66, 3-Oxo-6-pyridin-4-yl-2,3-dihydro-pyridazine-4-carboxylic acid (3-phenyl-propyl)-amide; compoundwith trifluoro-aceticacid], the IC50 in series [1] was 1.1 µM; in series [2], 0.095 µM.
